#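 In this assay, cells in 96-well plates receive the compound at five concentrations for 48 hours. Endpoints are linearly interpolated between the surrounding concentrations. At the GI50, growth is halved. TGI is the concentration that stops growth completely.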
# Experiments:
# Assay in all cases: NCI tumour cell line growth inhibition, 48 h
# 786-0 renal = test system: 786-0 renal
# A498 renal = test system: A498 renal
# A549 NSCLC = test system: A549 NSCLC
# ACHN renal = test system: ACHN renal
# BT-549 breast = test system: BT-549 breast
# CAKI-1 renal = test system: CAKI-1 renal
# CCRF-CEM leukemia = test system: CCRF-CEM leukemia
# COLO 205 colon = test system: COLO 205 colon
# DU-145 prostate = test system: DU-145 prostate
# EKVX NSCLC = test system: EKVX NSCLC
# HCC-2998 colon = test system: HCC-2998 colon
# HCT-116 colon = test system: HCT-116 colon
# HCT-15 colon = test system: HCT-15 colon
# HL-60(TB) leukemia = test system: HL-60(TB) leukemia
# HOP-62 NSCLC = test system: HOP-62 NSCLC
# HOP-92 NSCLC = test system: HOP-92 NSCLC
# HS 578T breast = test system: HS 578T breast
# HT29 colon = test system: HT29 colon
# IGROV1 ovarian = test system: IGROV1 ovarian
# K-562 leukemia = test system: K-562 leukemia
# KM12 colon = test system: KM12 colon
# LOX IMVI melanoma = test system: LOX IMVI melanoma
# M14 melanoma = test system: M14 melanoma
# MALME-3M melanoma = test system: MALME-3M melanoma
# MCF7 breast = test system: MCF7 breast
# MDA-MB-231 breast = test system: MDA-MB-231 breast
# MDA-MB-435 = test system: MDA-MB-435
# MOLT-4 leukemia = test system: MOLT-4 leukemia
# NCI-H226 lung = test system: NCI-H226 lung
# NCI-H23 lung = test system: NCI-H23 lung
# NCI-H460 lung = test system: NCI-H460 lung
# NCI/ADR-RES ovarian = test system: NCI/ADR-RES ovarian
# OVCAR-3 ovarian = test system: OVCAR-3 ovarian
# OVCAR-4 ovarian = test system: OVCAR-4 ovarian
# OVCAR-5 ovarian = test system: OVCAR-5 ovarian
# OVCAR-8 ovarian = test system: OVCAR-8 ovarian
# PC-3 prostate = test system: PC-3 prostate
# RPMI-8226 leukemia = test system: RPMI-8226 leukemia
# RXF 393 renal = test system: RXF 393 renal
# SF-268 CNS = test system: SF-268 CNS
# SF-295 CNS = test system: SF-295 CNS
# SF-539 CNS = test system: SF-539 CNS
# SK-MEL-2 melanoma = test system: SK-MEL-2 melanoma
# SK-MEL-28 melanoma = test system: SK-MEL-28 melanoma
# SK-MEL-5 melanoma = test system: SK-MEL-5 melanoma
# SK-OV-3 ovarian = test system: SK-OV-3 ovarian
# SNB-19 CNS = test system: SNB-19 CNS
# SNB-75 CNS = test system: SNB-75 CNS
# SR leukemia = test system: SR leukemia
# SW-620 colon = test system: SW-620 colon
# T-47D breast = test system: T-47D breast
# TK-10 renal = test system: TK-10 renal
# UACC-257 melanoma = test system: UACC-257 melanoma
# UACC-62 melanoma = test system: UACC-62 melanoma
# UO-31 renal = test system: UO-31 renal
# NCI-H522 lung = test system: NCI-H522 lung
# SN12C renal = test system: SN12C renal
# U251 CNS = test system: U251 CNS
compound,measurement,setting,value
Cn1c(-c2cccc(N)c2)[n+](C)c2ccccc21,TGI,786-0 renal,> 100 µM
same,TGI,A498 renal,> 100 µM
same,TGI,A549 NSCLC,> 100 µM
same,TGI,ACHN renal,> 100 µM
same,TGI,BT-549 breast,> 100 µM
same,TGI,CAKI-1 renal,> 100 µM
same,TGI,CCRF-CEM leukemia,> 100 µM
same,TGI,COLO 205 colon,> 100 µM
same,TGI,DU-145 prostate,> 100 µM
same,TGI,EKVX NSCLC,> 100 µM
same,TGI,HCC-2998 colon,> 100 µM
same,TGI,HCT-116 colon,> 100 µM
same,TGI,HCT-15 colon,> 100 µM
same,TGI,HL-60(TB) leukemia,> 100 µM
same,TGI,HOP-62 NSCLC,> 100 µM
same,TGI,HOP-92 NSCLC,> 100 µM
same,TGI,HS 578T breast,> 100 µM
same,TGI,HT29 colon,> 100 µM
same,TGI,IGROV1 ovarian,> 100 µM
same,TGI,K-562 leukemia,> 100 µM
same,TGI,KM12 colon,> 100 µM
same,TGI,LOX IMVI melanoma,> 100 µM
same,TGI,M14 melanoma,> 100 µM
same,TGI,MALME-3M melanoma,> 100 µM
same,TGI,MCF7 breast,> 100 µM
same,TGI,MDA-MB-231 breast,> 100 µM
same,TGI,MDA-MB-435,> 100 µM
same,TGI,MOLT-4 leukemia,> 100 µM
same,TGI,NCI-H226 lung,> 100 µM
same,TGI,NCI-H23 lung,> 100 µM
same,TGI,NCI-H460 lung,> 100 µM
same,TGI,NCI/ADR-RES ovarian,> 100 µM
same,TGI,OVCAR-3 ovarian,> 100 µM
same,TGI,OVCAR-4 ovarian,> 100 µM
same,TGI,OVCAR-5 ovarian,> 100 µM
same,TGI,OVCAR-8 ovarian,> 100 µM
same,TGI,PC-3 prostate,> 100 µM
same,TGI,RPMI-8226 leukemia,> 100 µM
same,TGI,RXF 393 renal,> 100 µM
same,TGI,SF-268 CNS,> 100 µM
same,TGI,SF-295 CNS,> 100 µM
same,TGI,SF-539 CNS,> 100 µM
same,TGI,SK-MEL-2 melanoma,> 100 µM
same,TGI,SK-MEL-28 melanoma,> 100 µM
same,TGI,SK-MEL-5 melanoma,> 100 µM
same,TGI,SK-OV-3 ovarian,> 100 µM
same,TGI,SNB-19 CNS,> 100 µM
same,TGI,SNB-75 CNS,> 100 µM
same,TGI,SR leukemia,> 100 µM
same,TGI,SW-620 colon,> 100 µM
same,TGI,T-47D breast,> 100 µM
same,TGI,TK-10 renal,> 100 µM
same,TGI,UACC-257 melanoma,> 100 µM
same,TGI,UACC-62 melanoma,> 100 µM
same,TGI,UO-31 renal,> 100 µM
CC(C)N(Cc1c(F)cccc1F)c1ccc(CO)c(Cl)c1,GI50,786-0 renal,13.7 µM
same,TGI,786-0 renal,29.6 µM
same,GI50,A498 renal,0.0488 µM
same,TGI,A498 renal,0.148 µM
same,GI50,A549 NSCLC,0.643 µM
same,TGI,A549 NSCLC,13.4 µM
same,GI50,ACHN renal,15.3 µM
same,TGI,ACHN renal,29.9 µM
same,GI50,BT-549 breast,18.7 µM
same,TGI,BT-549 breast,34.3 µM
same,GI50,CAKI-1 renal,1.25 µM
same,TGI,CAKI-1 renal,15 µM
same,GI50,CCRF-CEM leukemia,17.8 µM
same,TGI,CCRF-CEM leukemia,40.2 µM
same,GI50,COLO 205 colon,1.02 µM
same,TGI,COLO 205 colon,3.02 µM
same,GI50,DU-145 prostate,12.2 µM
same,TGI,DU-145 prostate,27.3 µM
same,GI50,HCC-2998 colon,2.06 µM
same,TGI,HCC-2998 colon,13.8 µM
same,GI50,HCT-116 colon,0.0408 µM
same,TGI,HCT-116 colon,12.4 µM
same,GI50,HCT-15 colon,11.7 µM
same,TGI,HCT-15 colon,29.1 µM
same,GI50,HL-60(TB) leukemia,3.92 µM
same,TGI,HL-60(TB) leukemia,34.5 µM
same,GI50,HOP-62 NSCLC,0.553 µM
same,TGI,HOP-62 NSCLC,19.6 µM
same,GI50,HOP-92 NSCLC,0.111 µM
same,TGI,HOP-92 NSCLC,1.73 µM
same,GI50,HS 578T breast,17.7 µM
same,TGI,HS 578T breast,40.8 µM
same,GI50,HT29 colon,2.62 µM
same,TGI,HT29 colon,17.5 µM
same,GI50,IGROV1 ovarian,0.0424 µM
same,TGI,IGROV1 ovarian,0.186 µM
same,GI50,K-562 leukemia,0.354 µM
same,TGI,K-562 leukemia,17.9 µM
same,GI50,KM12 colon,15.8 µM
same,TGI,KM12 colon,33.1 µM
same,GI50,LOX IMVI melanoma,18.5 µM
same,TGI,LOX IMVI melanoma,34.7 µM
same,GI50,M14 melanoma,19.1 µM
same,TGI,M14 melanoma,37.7 µM
same,GI50,MALME-3M melanoma,17.5 µM
same,TGI,MALME-3M melanoma,33.6 µM
same,GI50,MCF7 breast,0.0655 µM
same,TGI,MCF7 breast,13.6 µM
same,GI50,MDA-MB-231 breast,15.3 µM
same,TGI,MDA-MB-231 breast,35.8 µM
same,GI50,MDA-MB-435,17.3 µM
same,TGI,MDA-MB-435,34.6 µM
same,GI50,MOLT-4 leukemia,19.5 µM
same,TGI,MOLT-4 leukemia,46 µM
same,GI50,NCI-H226 lung,0.0727 µM
same,TGI,NCI-H226 lung,0.215 µM
same,GI50,NCI-H23 lung,14 µM
same,TGI,NCI-H23 lung,32.4 µM
same,GI50,NCI-H460 lung,0.134 µM
same,TGI,NCI-H460 lung,2.63 µM
same,GI50,NCI-H522 lung,18 µM
same,TGI,NCI-H522 lung,35.2 µM
same,GI50,NCI/ADR-RES ovarian,10.9 µM
same,TGI,NCI/ADR-RES ovarian,27.9 µM
same,GI50,OVCAR-3 ovarian,0.171 µM
same,TGI,OVCAR-3 ovarian,0.565 µM
same,GI50,OVCAR-4 ovarian,0.119 µM
same,TGI,OVCAR-4 ovarian,0.832 µM
same,GI50,OVCAR-5 ovarian,0.0702 µM
same,TGI,OVCAR-5 ovarian,0.253 µM
same,GI50,OVCAR-8 ovarian,6.65 µM
same,TGI,OVCAR-8 ovarian,24.7 µM
same,GI50,PC-3 prostate,12.1 µM
same,TGI,PC-3 prostate,26.1 µM
same,GI50,RPMI-8226 leukemia,0.529 µM
same,TGI,RPMI-8226 leukemia,27.5 µM
same,GI50,RXF 393 renal,1.63 µM
same,TGI,RXF 393 renal,20.6 µM
same,GI50,SF-268 CNS,18.3 µM
same,TGI,SF-268 CNS,34.9 µM
same,GI50,SF-295 CNS,0.157 µM
same,TGI,SF-295 CNS,2.53 µM
same,GI50,SF-539 CNS,16.8 µM
same,TGI,SF-539 CNS,31.8 µM
same,GI50,SK-MEL-2 melanoma,0.848 µM
same,TGI,SK-MEL-2 melanoma,21.7 µM
same,GI50,SK-MEL-28 melanoma,13 µM
same,TGI,SK-MEL-28 melanoma,26.6 µM
same,GI50,SK-MEL-5 melanoma,12.7 µM
same,TGI,SK-MEL-5 melanoma,25.6 µM
same,GI50,SK-OV-3 ovarian,2.64 µM
same,TGI,SK-OV-3 ovarian,12.9 µM
same,GI50,SN12C renal,12.1 µM
same,TGI,SN12C renal,25.7 µM
same,GI50,SNB-19 CNS,19.1 µM
same,TGI,SNB-19 CNS,> 52.3 µM
same,GI50,SNB-75 CNS,13 µM
same,TGI,SNB-75 CNS,26.6 µM
same,GI50,SR leukemia,19.4 µM
same,TGI,SR leukemia,46.6 µM
same,GI50,SW-620 colon,0.355 µM
same,TGI,SW-620 colon,18.3 µM
same,GI50,T-47D breast,0.0502 µM
same,TGI,T-47D breast,0.216 µM
same,GI50,TK-10 renal,0.0326 µM
same,TGI,TK-10 renal,0.145 µM
same,GI50,U251 CNS,0.228 µM
same,TGI,U251 CNS,17.3 µM
same,GI50,UACC-257 melanoma,0.0582 µM
same,TGI,UACC-257 melanoma,0.195 µM
same,GI50,UACC-62 melanoma,0.0748 µM
same,TGI,UACC-62 melanoma,0.398 µM
same,GI50,UO-31 renal,3.14 µM
same,TGI,UO-31 renal,25 µM
